Experimental data: patent US9096560B2, “5-heterocyclylalkyl-3-hydroxy-2-phenylcyclopent-2-enones as herbicides” (Syngenta Limited, priority 2008, dated 2015)

Key:
Type in all cases: in vivo
[1] = system: Lolium perenne (LOLPE); test: Example B pre-emergence herbicidal test, LOLPE; details: Lolium perenne, 312 h, rate 250 g/ha, evaluated after 13 days, 100=total damage to plant, 0=no damage to plant
Method in brief: (§1)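 Pre-emergence spray one day after sowing; vehicle acetone/water (50:50), 0.5% Tween 20. Percent damage (0 = no effect, 100 = plant killed) recorded 13 days later.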

[2] = system: Alopecurus myosuroides (ALOMY); test: Example B pre-emergence herbicidal test, ALOMY; details: Alopecurus myosuroides, 312 h, rate 250 g/ha, evaluated after 13 days, 100=total damage to plant, 0=no damage to plant
Method in brief: as §1

[3] = system: Echinochloa crus-galli (ECHCG); test: Example B pre-emergence herbicidal test, ECHCG; details: Echinochloa crus-galli, 312 h, rate 250 g/ha, evaluated after 13 days, 100=total damage to plant, 0=no damage to plant
Method in brief: as §1

[4] = system: Avena fatua (AVEFA); test: Example B pre-emergence herbicidal test, AVEFA; details: Avena fatua, 312 h, rate 250 g/ha, evaluated after 13 days, 100=total damage to plant, 0=no damage to plant
Method in brief: as §1

[5] = system: Lolium perenne (LOLPE); test: Example B post-emergence herbicidal test, LOLPE; details: Lolium perenne, 312 h, rate 250 g/ha, evaluated after 13 days, scale 0-100, read-out: Post-emergence activity LOLPE (100=total damage to plant; 0=no damage to plant)
Method in brief: (§2)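 Foliar application to 8-day-old pot-grown seedlings in a glasshouse (24/16 °C, 14 h photoperiod, 65% humidity). Spray solution was derived from an acetone/water (50:50) formulation with 0.5% Tween 20. Injury was assessed 13 days later on a 0–100 scale.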

[6] = system: Alopecurus myosuroides (ALOMY); test: Example B post-emergence herbicidal test, ALOMY; details: Alopecurus myosuroides, 312 h, rate 250 g/ha, evaluated after 13 days, scale 0-100, read-out: Post-emergence activity ALOMY (100=total damage to plant; 0=no damage to plant)
Method in brief: as §2

[7] = system: Echinochloa crus-galli (ECHCG); test: Example B post-emergence herbicidal test, ECHCG; details: Echinochloa crus-galli, 312 h, rate 250 g/ha, evaluated after 13 days, scale 0-100, read-out: Post-emergence activity ECHCG (100=total damage to plant; 0=no damage to plant)
Method in brief: as §2

[8] = system: Avena fatua (AVEFA); test: Example B post-emergence herbicidal test, AVEFA; details: Avena fatua, 312 h, rate 250 g/ha, evaluated after 13 days, scale 0-100, read-out: Post-emergence activity AVEFA (100=total damage to plant; 0=no damage to plant)
Method in brief: as §2

[9] = system: Winter Wheat variety 'Hereward'; test: Example C crop damage test on Winter Wheat, post-emergence, no safener; details: Triticum aestivum, 312 h, rate 250 g/ha, evaluated after 13 days, read-out: Winter Wheat (Hereward) damage (100=total damage to plant; 0=no damage to plant)
Experimental: Seeds of the Winter Wheat variety ‘Hereward’ were sown in standard soil in pots. After 8 days cultivation under controlled conditions in a glasshouse (at 24/16° C., day/night; 14 hours light; 65% humidity), the plants were sprayed with an aqueous spray solution derived from the formulation of the technical active ingredient in acetone/water (50:50) solution containing 0.5% Tween 20 (polyoxyethelyene sorbitan monolaurate, CAS RN 9005-64-5). The test plants were then grown in a glasshouse under controlled conditions in a glasshouse (at 24/16° C., day/night; 14 hours light; 65% humidity) and watered twice daily. After 13 days for pre and post-emergence, the test was evaluated (100=total damage to plant; 0=no damage to plant).

[10] = system: Winter Wheat variety 'Hereward' seed treated with cloquintocet mexyl; test: Example C crop damage test on Winter Wheat seed treated with safener cloquintocet mexyl, post-emergence; details: rate 250 g/ha, seed treated with cloquintocet mexyl 0.5 grams per kilogram of dry seed, evaluated after 13 days
Experimental: Seeds of the Winter Wheat variety ‘Hereward’ were seed treated with a wettable powder formulation of the cereal herbicide safener, cloquintocet mexyl, at a rate of 0.5 grams per kilogram of dry seed prior to the initiation of glasshouse testing. One seed was sown per 1.5 inch plastic pot into a sandy loam soil at a depth of 1 cm, 8 days prior to application of the test compounds and was watered and grown under controlled conditions in a glasshouse (at 24/16° C., day/night; 14 hours light; 65% humidity). The plants were sprayed Post-emergence with an aqueous spray solution derived from the formulation of the technical active ingredient in acetone/water (50:50) solution containing 0.5% Tween 20 (polyoxyethelyene sorbitan monolaurate, CAS RN 9005-64-5). The test plants were then grown in a glasshouse under controlled conditions in a glasshouse (at 24/16° C., day/night; 14 hours light; 65% humidity) and watered twice daily. After 13 days for pre and post-emergence, the test was evaluated (100=total damage to plant; 0=no damage to plant).

| Structure (SMILES) | pest or weed control at 250 g/ha [1] | pest or weed control at 250 g/ha [2] | pest or weed control at 250 g/ha [3] | pest or weed control at 250 g/ha [4] | pest or weed control at 250 g/ha [5] | pest or weed control at 250 g/ha [6] | pest or weed control at 250 g/ha [7] | pest or weed control at 250 g/ha [8] | crop damage to winter wheat at 250 g/ha [9] | Winter Wheat (Hereward) + cloquintocet mexyl damage (100=total damage to plant; 0=no damage to plant) [10] |
| --- | --- | --- | --- | --- | --- | --- | --- | --- | --- | --- |
| Cc1cc(C)c(C2C(=O)C/C(=C\C3CCOC(C)(C)C3)C2=O)c(C)c1 (stereo not drawn) [Compound T37] | 100% | 100% | 100% | 90% | 100% | 90% | 100% | 100% | 80% | 70 |
| Cc1cc(C)c(C2C(=O)CC(CC3CCOC(C)(C)C3)C2=O)c(C)c1 (stereo not drawn) [Compound T39] | 100% | 100% | 100% | 100% | 100% | 90% | 100% | 100% | 80% | 70 |
| Cc1cc(C)c(C2C(=O)CC(CC3COCCO3)C2=O)c(C)c1 (stereo not drawn) [Compound T40] | 100% | 100% | 100% | 80% | 100% | 80% | 100% | 90% | 60% | 10 |
| Cc1cc(C)c(C2C(=O)CC(CC3CCN(C(=O)c4ccccc4)C3)C2=O)c(C)c1 (stereo not drawn) [Compound T41] | 90% | 70% | 100% | 90% | 100% | 100% | 100% | 100% | 90% | 80 |
| Cc1cc(-c2ccc(Cl)cc2)cc(C)c1C1C(=O)C/C(=C\C2CCOCC2)C1=O (stereo not drawn) [Compound T62] | 100% | 80% | 100% | 70% | 90% | 90% | 100% | 100% | 80% | 70 |
| Cc1cc(-c2ccc(Cl)cc2)cc(C)c1C1C(=O)CC(CC2CCOCC2)C1=O (stereo not drawn) [Compound T64] | 100% | 50% | 100% | 90% | 90% | 90% | 100% | 100% | 80% | 70 |
| Cc1cc(-c2ccccc2)cc(C)c1C1C(=O)C/C(=C\C2CCOCC2)C1=O (stereo not drawn) [Compound T66] | 80% | 90% | 100% | 80% | 60% | 90% | 100% | 90% | 50% | 20 |
| Cc1cc(-c2ccccc2)cc(C)c1C1C(=O)CC(CC2CCOCC2)C1=O (stereo not drawn) [Compound T67] | 100% | 90% | 100% | 90% | 100% | 90% | 100% | 100% | 70% | 30 |
| Cc1cc(C)c(C2C(=O)CC(CC3CCN(C(=O)c4ccc(F)cc4)CC3)C2=O)c(C)c1 (stereo not drawn) [Compound T75] | 80% | 30% | 70% | 70% | 100% | 90% | 90% | 100% | 60% | 50 |
| CCCC(=O)N1CCC(CC2CC(=O)C(c3c(C)cc(C)cc3C)C2=O)CC1 (stereo not drawn) [Compound T84] | 90% | 50% | 60% | 50% | 100% | 90% | 90% | 100% | 70% | 60 |
| Cc1cc(C)c(C2C(=O)CC(CC3CCN(C(=O)C4CC4)CC3)C2=O)c(C)c1 (stereo not drawn) [Compound T88] | 100% | 90% | 80% | 90% | 90% | 90% | 90% | 100% | 70% | 50 |
| COC(=O)N1CCC(CC2CC(=O)C(c3c(C)cc(C)cc3C)C2=O)CC1 (stereo not drawn) [Compound T98] | 90% | 70% | 90% | 80% | 100% | 100% | 90% | 100% | 90% | 60 |
